Laboratory results: patent US10940139B2, “Compounds that interact with the Ras superfamily for the treatment of cancers, inflammatory diseases, rasopathies, and fibrotic disease” (Shy Therapeutics LLC, priority 2017, dated 2021)

Tests used:
Test in all cases: Ras GTP binding domain inhibition assay (labeled GTP)
[1] = target: KRas G12D/Q61H double mutant (Homo sapiens (Human), UniProt P01116, G12D/Q61H); conditions: for inhibition at 20 µM: 20 μM compound, read-out: % Inhibition at 20 μM KRas G12D Q61H
In short: (§1)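 Fluorescence read-out of Cy3-/Cy5-GTP remaining bound to nickel-immobilized His-KRas after washes. Protein was coated overnight at 4° C, then exposed to compound for 3 h at room temperature before a 45 min labeled-GTP incubation.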

KRas Q61H mutant = KRas Q61H mutant (Homo sapiens (Human), UniProt P01116, Q61H); conditions: 20 μM compound; read-out: % Inhibition at 20 μM KRas Q61H
In short: as §1

[2] = target: KRas G12C/Q61H double mutant (Homo sapiens (Human), UniProt P01116, G12C/Q61H); conditions: 20 μM compound; read-out: % Inhibition at 20 μM KRas G12C Q61H
In short: as §1

Sequence of KRas G12D/Q61H double mutant (P01116-2 other isoform, or with tags, fused parts or gaps G12D/Q61H): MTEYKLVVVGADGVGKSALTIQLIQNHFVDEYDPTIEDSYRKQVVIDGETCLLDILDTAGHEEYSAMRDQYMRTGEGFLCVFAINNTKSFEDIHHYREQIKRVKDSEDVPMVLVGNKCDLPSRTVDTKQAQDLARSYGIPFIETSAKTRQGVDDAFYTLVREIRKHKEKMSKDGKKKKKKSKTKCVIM
Sequence of KRas G12C/Q61H double mutant (P01116-2 other isoform, or with tags, fused parts or gaps G12C/Q61H): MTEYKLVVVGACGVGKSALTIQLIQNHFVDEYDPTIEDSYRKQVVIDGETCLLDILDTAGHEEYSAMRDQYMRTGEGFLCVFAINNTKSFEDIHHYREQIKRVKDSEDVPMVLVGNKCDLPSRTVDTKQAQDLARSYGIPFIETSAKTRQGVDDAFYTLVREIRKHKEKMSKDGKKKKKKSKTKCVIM
Sequence of KRas Q61H mutant (P01116-2 other isoform, or with tags, fused parts or gaps Q61H): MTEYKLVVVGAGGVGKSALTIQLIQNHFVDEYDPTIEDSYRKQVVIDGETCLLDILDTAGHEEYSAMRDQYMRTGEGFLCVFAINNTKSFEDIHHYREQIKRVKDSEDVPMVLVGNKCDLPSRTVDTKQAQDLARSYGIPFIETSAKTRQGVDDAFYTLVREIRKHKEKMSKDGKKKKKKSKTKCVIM

Row | Compound | inhibition at 20 µM [1] | inhibition at 20 µM (KRas Q61H mutant) | inhibition at 20 µM [2] | IC50 ([1]; serial dilution, read-out: KRas G12D Q61H (classes E-H, IC50))
1 | N#Cc1cccc(N2CCN(C(=O)c3csc4c(O)nc(-c5ccccn5)nc34)CC2)c1 [drawing 2755] | 1 to 25% | 25 to 50% | 25 to 50% | –
2 | N#Cc1ccc(N2CCN(C(=O)c3csc4c(O)nc(-c5ccccn5)nc34)CC2)cc1 [drawing 2756] | 0% | 51 to 75% | 51 to 75% | –
3 | COc1cc(OC)cc(N2CCN(C(=O)c3csc4c(O)nc(-c5ccccn5)nc34)CC2)c1 [drawing 2757] | 0% | 1 to 25% | 1 to 25% | –
4 | COc1cc(N2CCN(C(=O)c3csc4c(O)nc(-c5ccccn5)nc34)CC2)cc(OC)c1OC [drawing 2758] | 0% | 25 to 50% | 1 to 25% | –
5 | COc1ccc(N2CCN(C(=O)c3csc4c(O)nc(-c5ccccn5)nc34)CC2)c(OC)c1 [drawing 2759] | 25 to 50% | 51 to 75% | 51 to 75% | –
6 | O=C(c1csc2c(O)nc(-c3ccccn3)nc12)N1CCN(c2ccc(F)cc2F)CC1 [drawing 2760] | 51 to 75% | 25 to 50% | 25 to 50% | –
7 | O=C(c1csc2c(O)nc(-c3ccccn3)nc12)N1CCN(Cc2ccccc2)CC1 [drawing 2762] | 25 to 50% | 76 to 100% | 51 to 75% | –
8 | O=C(c1csc2c(O)nc(-c3ccccn3)nc12)N1CCN(Cc2ccc(O)cc2)CC1 [drawing 2764] | 1 to 25% | 25 to 50% | 25 to 50% | –
9 | O=C(c1csc2c(O)nc(-c3ccccn3)nc12)N1CCN(Cc2ccc(O)c(Cl)c2)CC1 [drawing 2765] | 25 to 50% | 76 to 100% | 76 to 100% | –
10 | O=C(c1csc2c(O)nc(-c3ccccn3)nc12)N1CCOC(c2ccccc2)C1 (stereo not shown) [drawing 2766] | 1 to 25% | 51 to 75% | 25 to 50% | –
11 | COc1ccccc1C1CN(C(=O)c2csc3c(O)nc(-c4ccccn4)nc23)CCO1 (stereo not shown) [drawing 2767] | 51 to 75% | 76 to 100% | 51 to 75% | 11 to 30 µM
12 | COc1ccc(C2CN(C(=O)c3csc4c(O)nc(-c5ccccn5)nc34)CCO2)cc1 (stereo not shown) [drawing 2768] | 25 to 50% | 25 to 50% | 25 to 50% | –
13 | O=C(c1csc2c(O)nc(-c3ccccn3)nc12)N1CCOC(c2cccc(Cl)c2)C1 (stereo not shown) [drawing 2770] | 1 to 25% | 51 to 75% | 25 to 50% | –
14 | O=C(c1csc2c(O)nc(-c3ccccn3)nc12)N1CCOC(Cc2ccccc2)C1 (stereo not shown) [drawing 2771] | 25 to 50% | 51 to 75% | 51 to 75% | –
15 | COc1ccccc1C1CN(C(=O)c2csc3c(O)nc(-c4ccccn4)nc23)CCN1 (stereo not shown) [drawing 2772] | 25 to 50% | 76 to 100% | 51 to 75% | –
16 | COc1ccc(C2CN(C(=O)c3csc4c(O)nc(-c5ccccn5)nc34)CCN2)cc1 (stereo not shown) [drawing 2774] | 1 to 25% | 76 to 100% | 76 to 100% | –
17 | Cc1ccccc1C1CN(C(=O)c2csc3c(O)nc(-c4ccccn4)nc23)CCN1 (stereo not shown) [drawing 2775] | 25 to 50% | 76 to 100% | 51 to 75% | –
18 | O=C(c1csc2c(O)nc(-c3ccccn3)nc12)N1CCNC(c2ccccc2F)C1 (stereo not shown) [drawing 2776] | 25 to 50% | 76 to 100% | 51 to 75% | –
19 | Cn1cc(C2CN(C(=O)c3csc4c(O)nc(-c5ccccn5)nc34)CCN2)cn1 (stereo not shown) [drawing 2777] | 1 to 25% | 51 to 75% | 51 to 75% | –
20 | O=C(c1csc2c(O)nc(-c3ccccn3)nc12)N1CCNC(Cc2ccccc2)C1 (stereo not shown) [drawing 2778] | 25 to 50% | 51 to 75% | 51 to 75% | –
21 | O=C(NCCc1ccncc1)c1csc2nc(-c3ccccn3)nc(N3CCOCC3)c12 [drawing 2779] | 0% | 51 to 75% | 51 to 75% | –
22 | COc1ccncc1CCNC(=O)c1csc2nc(-c3ccccn3)nc(N3CCOCC3)c12 [drawing 2780] | 1 to 25% | 25 to 50% | 1 to 25% | –
23 | COc1cc(CCN(C)C(=O)c2csc3nc(-c4ccccn4)nc(N4CCOCC4)c23)ccn1 [drawing 2781] | 0% | 25 to 50% | 25 to 50% | –
24 | COc1ccnc(-c2nc(O)c3c(C#N)csc3n2)c1 [drawing 2782] | 0% | 51 to 75% | 25 to 50% | –
